From patent publication US20150119398A1, “FORM 2 POLYMORPH OF 7-(TERT-BUTYL-D9)-3-(2,5-DIFLUOROPHENYL)-6-((1-METHYL-1H-1,2,4-TRIAZOL-5-YL)METHOXY)-[1,2,4]TRIAZOLO[4,3-B]PYRIDAZINE” (Concert Pharmaceuticals Inc., priority 2012, published 2015)

Experiments:
[1] = Physical stability of the crystal form on exposure to ambient conditions or elevated humidity; assay type: physicochemical
[2] = Dynamic Vapor Sorption (DVS) analysis; assay type: physicochemical; conditions: between 0-90% relative humidity, 25° C.
Description: Dynamic Vapor Sorption (DVS). DVS experiments were conducted on a Surface Measurement Systems DVS-HT at 25° C. The instrument was operated in step mode and the relative humidity was increased in 10% RH increments from 40% RH to 90% RH, then decreased from 90% RH to 0% RH, then increased from 0% RH to 90% RH, then decreased from 90% RH to 0% RH. An extra step at 75% RH was included in each cycle. The mass equilibrium criterion was set at 0.005% change in mass over time (dm/dt) prior to each humidity level. A minimum step time of 10 minutes and a maximum step time of 240 minutes were specified.

Structure (SMILES): [2H]C([2H])([2H])C(c1cc2nnc(-c3cc(F)ccc3F)n2nc1OCc1ncnn1C)(C([2H])([2H])[2H])C([2H])([2H])[2H] [Form 2, 7-(tert-Butyl-d9)-3-(2,5-difluorophenyl)-6-((1-methyl-1H-1,2,4-triazol-5-yl)methoxy)-[1,2,4]triazolo[4,3-b]pyridazine]
- physical stability at elevated humidity (75% or 95% RH) ([1]; 75% or 95% RH, 5 days): physically stable
- physical stability at 75-97% relative humidity ([1]; 75-97% relative humidity, five days): physically stable
- physical stability at ambient conditions ([1]; ambient conditions, at least two weeks): physically stable
- weight gain by DVS [2]: up to 2.5 % wt
